Results reported in PubChem BioAssay AID2060903 (Molecular Pharmacology Branch, DTP, NCI, 2025).

System: 377384-186-R-J1-PDC complex spheroid viability
Experiment: Anticancer human tumor 377384-186-R-J1-PDC patient-derived pancreatic carcinoma cell line growth inhibition [RAS]
Conditions: for IC50: curve of first compound; for viability, T/C: stronger effect = lower value
From the text: RAS pathway inhibitors in Combinations in Complex Spheroids
A high-throughput screen of multi-cell type tumor spheroids was designed to identify active combinations of RAS pathway inhibitors and targeted small molecules. Complex spheroids include a stromal component modeled by human endothelial cells (HUVEC) and fibroblasts modeled by human mesenchymal stem cells (MSCs). The concentration ranges selected for each drug and investigational agent were based upon clinically achievable concentrations if the clinical Cmax of the agent was known.
Compounds. The drugs and investigational agents: abemaciclib (NSC768073), cobimetinib (NSC768068), divarasib (GDC6063, NSC841802), docetaxel (NSC628503), GDC-1971 (RLY-1971, NSC841576), gemcitabine (NSC613327), inavolisib (NSC800729), ipatasertib (NSC767898), KB-0742 (NSC834161), MRTX-1133 (NSC836407), osimertinib (NSC779217), RMC-4630 (NSC839698), RMC-6236 (NSC851965), RMC-6291 (NSC852671), Ro-3306 (NSC812927), sapanisertib (NSC764658), SN-38 (NSC673596), staurosporine (NSC755774), SY5609 (NSC837396), and tovorafenib (DAY101, NSC766906), were obtained from the National Cancer Institute (NCI) Developmental Therapeutics Program Chemical Repository. The FDA-approved anticancer drug set is available from the NCI Developmental Therapeutics Program. […] The stock solutions were prepared in dimethyl sulfoxide (DMSO, Sigma-Aldrich, St. Louis, MO, cat. D2650) at 800-fold the tested concentration and stored at -70 degrees C prior to their use. All drugs and investigational agents were tested over a range starting from a high concentration at or near the clinical Cmax and decreasing in half-log increments. If the clinical Cmax for an agent had not been determined, the highest concentration tested was 10 microM.
Cell Culture. All cells were maintained in an incubator at 37 degrees C and 5% CO2 with 95% humidity. The PDC lines were cultured according to standard operating procedures established by the NCI PDMR. All PDCs were thawed and cultured in Matrigel-coated flasks prepared with a working solution of 1X Ham's F-12 nutrient mix, without supplementation (Invitrogen, Waltham, MA, cat. 11765054), 100 U/mL penicillin-streptomycin (Invitrogen, cat. 15140122), and 2.5% Matrigel (Corning Inc., Corning, NY, cat. 354248) for the first three passages. The 362531-283-R-J2-PDC and 782815-120-R-J1-PDC lines were cultured in 6C/Colon 1B media, which includes advanced DMEM/F-12 (Thermo Fisher Scientific, cat. 12634028), 10 mM HEPES (Thermo Fisher Scientific, cat. 15630080), 1X GlutaMAX supplement (Thermo Fisher Scientific, cat. 35050061), 0.1 mg/mL primocin (InvivoGen, San Diego, CA, cat. ant-pm-2), 10% defined fetal bovine serum, heat inactivated (HyClone Laboratories Inc., Logan, UT, cat. SH30070.03HI), 50% L-WRN conditioned media (ATCC, cat. CRL-3276), 1.25 mM N-Acetyl-L-cysteine (Sigma-Aldrich, cat. A9165), 10 mM nicotinamide (Sigma-Aldrich, cat. N0636), 1X B-27 supplement (Thermo Fisher Scientific, cat. 17504044), 1X N-2 supplement (Thermo Fisher Scientific, cat. 17502048), 50 ng/mL human EGF (Thermo Fisher Scientific, cat. PHG0311), and 10 microM Y-27632 dihydrochloride (Tocris Bioscience, cat. 1254). The K12877-001-R-J1-PDC line was cultured in 6I media, which includes all 6C/Colon 1B media plus 10 ng/mL human FGF-10 (PeproTech, cat. 100-26), 1 ng/mL human FGF-2 (PeproTech, cat. 100-18B), 1 µM prostaglandin E2 (Tocris Bioscience, cat. 2296), […] hydrocortisone (Sigma-Aldrich, cat. H4001), and […] bovine insulin (Sigma-Aldrich, cat. I6634). The K86415-001-R-J1-PDC line was cultured in 6D media, which includes all 6C/Colon 1B media components minus the L-WRN conditioned media. The 485176-168-R4-J1-PDC was cultured in PANC media, which includes all 6C/Colon 1B media plus 100 ng/mL human FGF-10 (PeproTech, cat. 100-26), 500 nM SB-431542 (Selleckchem, cat. S1067), and 10 nM gastrin (Tocris Bioscience, cat. 3006). […]
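Also: spheroids exposed to compounds for seven days before readout.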

Q: How did the IC50 (second compound 0.000949 µM) turn out when `CC(C)n1nc(-c2ccc3oc(N)nc3c2)c2c(N)ncnc21` + CCn1c(-c2cc(N3CCN(C)CC3)cnc2C(C)OC)c2c3cc(ccc31)-c1csc(n1)CC(NC(=O)C1CC1C)C(=O)N1CCCC(N1)C(=O)OCC(C)(C)C2 was run?
A: 0.989 nM

Q: What about the IC50 (second compound 0.003 µM) of the same molecule?
A: < 0.316 nM

Q: What about the IC50 (second compound 0.00949 µM) of the same molecule?
A: < 0.316 nM

Q: And the IC50 (second compound 0.03 µM)?
A: < 0.316 nM

Q: What about the IC50 (second compound 0.0949 µM) of the same molecule?
A: < 0.316 nM

Q: And the IC50 (second compound 0.3 µM)?
A: < 0.316 nM

Q: And the viability, T/C (second compound 0.000949 µM, first compound 0.000316 µM)?
A: 48.6%

Q: What about the viability, T/C (second compound 0.000949 µM, first compound 0.001 µM) of the same molecule?
A: 57.8%

Q: What about the viability, T/C (second compound 0.000949 µM, first compound 0.00316 µM) of the same molecule?
A: 35.5%

Q: What about the viability, T/C (second compound 0.000949 µM, first compound 0.01 µM) of the same molecule?
A: 26.4%

Q: What about the viability, T/C (second compound 0.000949 µM, first compound 0.0316 µM) of the same molecule?
A: 16.2%

Q: And the viability, T/C (second compound 0.000949 µM, first compound 0.1 µM)?
A: 10.3%

Q: What about the viability, T/C (second compound 0.003 µM, first compound 0.000316 µM) of the same molecule?
A: 20.1%

Q: What about the viability, T/C (second compound 0.003 µM, first compound 0.001 µM) of the same molecule?
A: 24.1%

Q: What about the viability, T/C (second compound 0.003 µM, first compound 0.00316 µM) of the same molecule?
A: 17.6%

Q: And the viability, T/C (second compound 0.003 µM, first compound 0.01 µM)?
A: 13.7%

Q: What about the viability, T/C (second compound 0.003 µM, first compound 0.0316 µM) of the same molecule?
A: 8.27%

Q: What about the viability, T/C (second compound 0.003 µM, first compound 0.1 µM) of the same molecule?
A: 4.84%

Q: And the viability, T/C (second compound 0.00949 µM, first compound 0.000316 µM)?
A: 4.46%

Q: What about the viability, T/C (second compound 0.00949 µM, first compound 0.001 µM) of the same molecule?
A: 4.86%

Q: What about the viability, T/C (second compound 0.00949 µM, first compound 0.00316 µM) of the same molecule?
A: 4.1%

Q: And the viability, T/C (second compound 0.00949 µM, first compound 0.01 µM)?
A: 5.4%

Q: What about the viability, T/C (second compound 0.00949 µM, first compound 0.0316 µM) of the same molecule?
A: 4.11%

Q: What about the viability, T/C (second compound 0.00949 µM, first compound 0.1 µM) of the same molecule?
A: 2.39%

Q: And the viability, T/C (second compound 0.03 µM, first compound 0.000316 µM)?
A: 2.29%

Q: What about the viability, T/C (second compound 0.03 µM, first compound 0.001 µM) of the same molecule?
A: 2.17%

Q: What about the viability, T/C (second compound 0.03 µM, first compound 0.00316 µM) of the same molecule?
A: 2.37%

Q: And the viability, T/C (second compound 0.03 µM, first compound 0.01 µM)?
A: 1.66%

Q: And the viability, T/C (second compound 0.03 µM, first compound 0.0316 µM)?
A: 1.3%

Q: And the viability, T/C (second compound 0.03 µM, first compound 0.1 µM)?
A: 0.91%

Q: And the viability, T/C (second compound 0.0949 µM, first compound 0.000316 µM)?
A: 1.81%

Q: And the viability, T/C (second compound 0.0949 µM, first compound 0.001 µM)?
A: 2.1%

Q: What about the viability, T/C (second compound 0.0949 µM, first compound 0.00316 µM) of the same molecule?
A: 2.12%

Q: And the viability, T/C (second compound 0.0949 µM, first compound 0.01 µM)?
A: 1.18%

Q: And the viability, T/C (second compound 0.0949 µM, first compound 0.0316 µM)?
A: 0.96%

Q: What about the viability, T/C (second compound 0.0949 µM, first compound 0.1 µM) of the same molecule?
A: 0.58%

Q: What about the viability, T/C (second compound 0.3 µM, first compound 0.000316 µM) of the same molecule?
A: 1.71%

Q: And the viability, T/C (second compound 0.3 µM, first compound 0.001 µM)?
A: 1.54%

Q: And the viability, T/C (second compound 0.3 µM, first compound 0.00316 µM)?
A: 1.69%

Q: What about the viability, T/C (second compound 0.3 µM, first compound 0.01 µM) of the same molecule?
A: 1.04%

Q: What about the viability, T/C (second compound 0.3 µM, first compound 0.0316 µM) of the same molecule?
A: 0.89%

Q: What about the viability, T/C (second compound 0.3 µM, first compound 0.1 µM) of the same molecule?
A: 0.59%
